Patent US20250092065A1, “2-(INDAZOL-5-YL)-6-(PIPERIDIN-4-YL)-1,7-NAPHTHYRIDINE DERIVATIVES AND RELATED COMPOUNDS AS MODULATORS FOR SPLICING NUCLEIC ACIDS AND FOR THE TREATMENT OF PROLIFERATIVE DISEASES” (REMIX THERAPEUTICS INC., priority 2022, published 2025)
Where two headings read alike, the source gives them in different places.

Assays:
MYB = assay: HiBiT protein abundance assay, MYB (K562 HiBiT knock-in); type: cell-based, human; conditions: HiBiT knock-in K562 cells, 24 hours, top dose 10 μM
Description: (§1) Compounds described herein were used to screen for effects on quantitative protein abundance using a HiBit assay system (Promega). Quantitative protein abundance was determined by measuring the protein levels of HiBit-tagged protein targets expressed in cell culture via luminescence using the Nano-Glo HiBiT Lytic Detection System, which uses a split complementation assay format to reconstitute NanoBiT enzyme to generate a luminescent signal. A protein abundance assay was developed such that endogenous protein targets could be modified with the HiBiT peptide tag and their abundance could be assessed after compound treatment. Briefly, K562 cell lines containing a HiBiT-modification were treated with various compounds described herein (e.g., compounds of Formulas (I), or (II)). After treatment for 24 hours, the protein abundance of a specific target was determined by measuring luminescence.
(§2) Cells were maintained in IMIDM with 10% FBS. Before the assay, cells were diluted with […] growth media (IMIDM+[…] media) and were seeded in a 384-well plate at a density of 10000 cells/well (for each cell line listed in Table 6). Each compound was prepared as a 10-point 3-fold serial dilution in DMSO with the top dose at a final concentration of 10 μM in the well. Unmodified K562 cells were added at the previously specified density with DMSO to serve as an assay baseline and positive control (PC) and DMSO only with the respective modified cell lines was added to the negative control (NC) columns. Final DMSO concentration was kept at or below 0.25%. Treated cell plates were placed in an incubator at 37° C. with […] for 24 hours. After 24 hours, 25 μL of Complete HiBit Lytic reagent was added to each well at room temperature (e.g. one plate requiring 10 mL Lytic Buffer, 100 μL LgBiT Protein, 200 μL Lytic Substrate), shaken for 5 minutes at 600 RPM, then left to sit for 10 minutes for signal to stabilize before reading on a Spark Cyto plate reader (Tecan) with a 500 ms measurement time.
(§3) To determine compound effects on protein abundance of each target in Table 6, the percent response for each respective cell line was calculated at each compound concentration as follows:
(§4) % response=100*(S−PC)(NC−PC)
(§5) For the normalized response at each concentration, a four-parameter logistical regression was fit to the data and the response was interpolated at the […] to determine a concentration for protein abundance at 50% (IC50) the untreated control.

K562 cells = assay: Cell Titer Glo 2.0 cell viability (toxicity) assay, K562; conditions: 500 cells/well, 72 hours
SMN2 mRNA = assay: RT-qPCR splicing assay, SMN2 mRNA; type: cell-based, human; conditions: Homo sapiens, canonical junction qPCR panel, Table 4; read-out: SMN2 IC50 (decrease in CJ mRNA levels)
Description: (§6) Compounds described herein were used to modulate RNA transcript abundance in cells. The expression of a target mRNA was measured by detecting the formation of an exon-exon junction in the canonical transcript (CJ). A compound mediated exon-inclusion event was detected by observing an increase in formation of a new junction with an alternative exon (AJ). Real-time qPCR assays were used to detect these splicing switches and interrogate the potency of various compounds towards different target genes. A high-throughput real time quantitative PCR (RT-qPCR) assay was developed to measure these two isoforms of the mRNA (CJ and AJ) for exemplary genes, such as HTT, SMN2, and MYB, together with a control housekeeping gene, GAPDH or GUSB or PPIA, used for normalization. Briefly, the A673 or K562 cell line was treated with various compounds described herein (e.g., compounds of Formula (I)). After treatment, the levels of the HTT, MYB, or SMN2 mRNA targets were determined from each sample of cell lysate by cDNA synthesis followed by qPCR.
(§7) The A673 cell line was cultured in DMEM with 10% FBS. Cells were diluted with full growth media and plated in a 96-well plate (15,000 cells in 100 ul media per well). The plate was incubated at 37° C. with 5% CO2 for 24 hours to allow cells to adhere. An 11-point 3-fold serial dilution of the compounds was made in DMSO then diluted in media in an intermediate plate. Compounds were transferred from the intermediate plate to the cell plate with the top dose at a final concentration of 10 uM in the well. Final DMSO concentration was kept at or below 0.25%. The cell plate was returned to the incubator at 37° C. with 5% CO2 for an additional 24 hours.
(§8) The K562 cell line was cultured in IMDM with 10% FBS. For K562, cells were diluted with full growth media and plated in either a 96-well plate (50,000 cells in 50 uL media per well) or a 384-well plate (8,000-40,000 cells in 45 uL media per well). An 11-point 3-fold serial dilution of the compounds were made in DMSO then diluted in media in an intermediate plate. Compound was transferred from the intermediate plate to the cell plate with the top dose at a final concentration of 10 uM in the well. Final DMSO concentration was kept at or below 0.25%. Final volume was 100 uL for 96-well plate and 50 uL for 384-well plate. The cell plate was then placed in an incubator at 37° C. with 5% CO2 for 24 hours.
(§9) The cells were then gently washed with 50 uL-100 uL cold PBS before proceeding to addition of lysis buffer. 30 uL-50 μL of room temperature lysis buffer with DNAse I (and optionally RNAsin) was added to each well. Cells were shaken/mixed thoroughly at room temperature for 5-10 minutes for lysis to take place and then 3 uL-5 μL of room temperature stop solution was added and wells were shaken/mixed again. After 2-5 minutes, the cell lysate plate was transferred to ice for RT-qPCR reaction setup. The lysates could also be frozen at −80° C. for later use.
(§10) In some cases, a direct lysis buffer was used. An appropriate volume of 3× lysis buffer (10 mM Tris, 150 mM NaCl, 1.5%-2.5% Igepal and 0.1-1 U/uL RNAsin, pH 7.4) was directly added to either K562 or A673 cells in media and mixed by pipetting 3 times. The plates were then incubated at room temperature with shaking/rocking for 20-50 minutes to allow for lysis to take place. After this time, the cell lysate plate was transferred to ice to set up for the RT-qPCR reactions. The lysates could also be frozen at −80° C. for later use.
(§11) To set up 10 uL RT-qPCR reactions, cell lysates were transferred to 384-well qPCR plates containing the master mix according to the table below. The plates were sealed, gently vortexed, and spun down before the run. The volumes were adjusted accordingly in some instances where the reaction was carried in 20 μL. The table below summarizes the components of the RT-qPCR reactions:
(§12) The RT-qPCR reaction was performed using a QuantStudio (ThermoFisher) under the following fast cycling conditions. […]

MYB mRNA = assay: RT-qPCR splicing assay, MYB mRNA canonical (CJ) and alternative (AJ) junction; type: cell-based, human; conditions: Homo sapiens; for AC50: MYB alternative junction mRNA, read-out: MYB AJ (increase in AJ mRNA, AC50)
Description: as §6, §7, §8, §9, §10, §11, §12

HTT mRNA = assay: RT-qPCR splicing assay, HTT mRNA canonical (CJ) and alternative (AJ) junction; type: cell-based, human; conditions: Homo sapiens; for AC50: HTT alternative junction mRNA, read-out: HTT AJ (increase in AJ mRNA, AC50)
Description: as §6, §7, §8, §9, §10, §11, §12

Target C = assay: HiBiT protein abundance assay, Target C (K562 HiBiT knock-in); type: cell-based, human; conditions: HiBiT knock-in K562 cells, 24 hours, top dose 10 μM
Description: as §2, §3, §4, §5

HTT = assay: HiBiT protein abundance assay, HTT (K562 HiBiT knock-in); type: cell-based, human; conditions: HiBiT knock-in K562 cells, 24 hours, top dose 10 μM
Description: as §1, §2, §3, §4, §5

[1] = MYB canonical junction mRNA, RT-qPCR, read-out: MYB CJ (decrease in CJ mRNA levels, IC50)
[2] = canonical junction qPCR panel, Table 4, read-out: MYB IC50 (decrease in CJ mRNA levels)
[3] = HTT canonical junction mRNA, RT-qPCR, read-out: HTT CJ (decrease in CJ mRNA levels, IC50)
[4] = canonical junction qPCR panel, Table 4, read-out: HTT IC50 (decrease in CJ mRNA levels)

| Compound | IC50 (MYB) | IC50 (SMN2 mRNA) | IC50 (MYB mRNA; [1]) | IC50 (MYB mRNA; [2]) | IC50 (HTT mRNA; [3]) | IC50 (HTT mRNA; [4]) | IC50 (Target C) | IC50 (HTT) | Effect of Exemplary Compounds on Cell Viability, K562 (K562 cells) | AC50 (MYB mRNA; RT-qPCR) | AC50 (HTT mRNA; RT-qPCR) |
| --- | --- | --- | --- | --- | --- | --- | --- | --- | --- | --- | --- |
| Cn1cc2c(O)c(-c3cc4ccc(C5CCNCC5)nc4cn3)ccc2n1 [Compound 106] | 1000 to 10000 nM | 100 to 1000 nM | 1000 to 10000 nM | 1000 to 10000 nM | 1000 to 10000 nM | 1000 to 10000 nM | 1000 to 10000 nM | 1000 to 10000 nM | B (B represents 100-1000 nM) | 100 to 1000 nM | 1000 to 10000 nM |
| Cn1cc2c(O)c(-c3ncc4nc(C5CCNCC5)ccc4n3)ccc2n1 [Compound 108] | 100 to 1000 nM | < 100 nM | 1000 to 10000 nM | 1000 to 10000 nM | 1000 to 10000 nM | 1000 to 10000 nM | 100 to 1000 nM | 100 to 1000 nM | B (B represents 100-1000 nM) | 1000 to 10000 nM | 1000 to 10000 nM |
| CN1CCN(c2ccc3nc(-c4cc5cn(C)nc5cc4O)ccc3n2)CC1 [Compound 116] | 1000 to 10000 nM | < 100 nM | 100 to 1000 nM | 100 to 1000 nM | 1000 to 10000 nM | 1000 to 10000 nM | 1000 to 10000 nM | 1000 to 10000 nM | C (C represents 1000-9999 nM) | 1000 to 10000 nM | 1000 to 10000 nM |
| CC1CN(c2ccc3nc(-c4cc5cn(C)nc5cc4O)ccc3n2)CCN1 (centres unmarked) [Compound 117] | 100 to 1000 nM | < 100 nM | 100 to 1000 nM | 100 to 1000 nM | 1000 to 10000 nM | 1000 to 10000 nM | 1000 to 10000 nM | 100 to 1000 nM | B (B represents 100-1000 nM) | 100 to 1000 nM | 1000 to 10000 nM |

The next lines start with results.

| IC50 (MYB) | IC50 (SMN2 mRNA) | IC50 (MYB mRNA; [1]) | IC50 (MYB mRNA; [2]) | IC50 (HTT mRNA; [3]) | IC50 (HTT mRNA; [4]) | IC50 (Target C) | IC50 (HTT) | Compound | Effect of Exemplary Compounds on Cell Viability, K562 (K562 cells) | AC50 (MYB mRNA; RT-qPCR) | AC50 (HTT mRNA; RT-qPCR) |
| --- | --- | --- | --- | --- | --- | --- | --- | --- | --- | --- | --- |
| < 100 nM | < 100 nM | < 100 nM | < 100 nM | < 100 nM | < 100 nM | < 100 nM | < 100 nM | Cn1cc2cc(-c3ccc4nc(C5CCNCC5)ccc4n3)c(O)cc2n1 [Compound 100] | B (B represents 100-1000 nM) | 1000 to 10000 nM | 100 to 1000 nM |
| < 100 nM | < 100 nM | < 100 nM | < 100 nM | < 100 nM | < 100 nM | < 100 nM | < 100 nM | Cc1c(O)c(-c2ccc3nc(C4CCNCC4)ccc3n2)cc2cn(C)nc12 [Compound 101] | A (A represents <100 nM) | < 100 nM | < 100 nM |
| < 100 nM | < 100 nM | < 100 nM | < 100 nM | < 100 nM | < 100 nM | < 100 nM | < 100 nM | Cn1cc2cc(-c3ccc4nc(C5CCNCC5)ccc4n3)c(O)c(F)c2n1 [Compound 102] | A (A represents <100 nM) | < 100 nM | < 100 nM |
| 100 to 1000 nM | < 100 nM | 100 to 1000 nM | 100 to 1000 nM | 100 to 1000 nM | 100 to 1000 nM | 100 to 1000 nM | 100 to 1000 nM | Cn1cc2cc(-c3ncc4nc(C5CCNCC5)ccc4n3)c(O)cc2n1 [Compound 107] | B (B represents 100-1000 nM) | 100 to 1000 nM | 100 to 1000 nM |
| < 100 nM | < 100 nM | < 100 nM | < 100 nM | < 100 nM | < 100 nM | < 100 nM | < 100 nM | Cn1cc2cc(-c3ccc4cc(C5CCNCC5)ccc4n3)c(O)cc2n1 [Compound 109] | B (B represents 100-1000 nM) | 100 to 1000 nM | 100 to 1000 nM |
| < 100 nM | < 100 nM | 100 to 1000 nM | 100 to 1000 nM | 1000 to 10000 nM | 1000 to 10000 nM | 100 to 1000 nM | 100 to 1000 nM | Cn1cc2cc(-c3ccc4c(F)c(C5CCNCC5)ccc4n3)c(O)cc2n1 [Compound 115] | B (B represents 100-1000 nM) | 100 to 1000 nM | 1000 to 10000 nM |
